Columns and labels:
[1] = system: smallflower umbrella sedge; experiment: Test C flooded paddy test; format: in vivo, Cyperus difformis; conditions: for Plant response rating, Sedge, Umbrella: 500 g ai/ha, visual rating after 12 to 14 days
rice = experiment: Test C flooded paddy test; format: in vivo, Oryza sativa; conditions: for Plant response rating, Rice: 500 g ai/ha, visual rating after 12 to 14 days
Procedure, shortened: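 Plants were grown to the 1- to 4-leaf stage (2–18 cm) and then treated postemergence, or grown to the 2-leaf stage for the flooded paddy test. They were held in a greenhouse for 12 to 14 days and then scored by eye against controls, where 0 is no effect and 100 is complete control.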

soybean = experiment: Test C pre-/postemergence herbicide test; format: in vivo, Glycine max; conditions: preemergence
Procedure, shortened: (§1)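 Greenhouse-grown plants were evaluated visually 12 to 14 days after treatment, with 100 meaning complete control and 0 no effect. Application was preemergence, or postemergence at 2 to 18 cm.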

Surinam grass = experiment: Test C pre-/postemergence herbicide test; format: in vivo, Urochloa decumbens; conditions: preemergence
Procedure, shortened: as §1

common ragweed = experiment: Test C pre-/postemergence herbicide test; format: in vivo, Ambrosia elatior; parameters: key to Plant response rating, Ragweed: 0 = no effect, 100 = complete control; conditions: preemergence
Procedure, shortened: as §1

giant foxtail = experiment: Test C pre-/postemergence herbicide test; format: in vivo, Setaria faberi; conditions: preemergence
Procedure, shortened: as §1

kochia = experiment: Test C pre-/postemergence herbicide test; format: in vivo, Kochia scoparia; conditions: preemergence
Procedure, shortened: as §1

corn = experiment: Test C pre-/postemergence herbicide test; format: in vivo, Zea mays; conditions: preemergence
Procedure, shortened: as §1

barnyardgrass = experiment: Test C flooded paddy test; format: in vivo, Echinochloa crus-galli; conditions: for Plant response rating, Barnyardgrass: 500 g ai/ha, visual rating after 12 to 14 days
Procedure, shortened: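 After a postemergence application at 1 to 4 leaves (plants 2–18 cm high), or at 2 leaves for barnyardgrass in flooded paddy, plants stayed in the greenhouse for 12 to 14 days. Damage was then judged visually relative to control plants, with 100 indicating complete control.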

morningglory = experiment: Test C pre-/postemergence herbicide test; format: in vivo, Ipomoea coccinea; parameters: key to Plant response rating, Morningglory: 0 = no effect, 100 = complete control; conditions: preemergence
Procedure, shortened: as §1

[2] = 125 g ai/ha, scale 0 to 100 (0 no effect, 100 complete control)
[3] = 250 g ai/ha, scale of 0 to 100, 0 is no effect, 100 is complete control
[4] = scale 0 to 100 (0 no effect, 100 complete control)
[5] = 500 g ai/ha, scale 0 to 100 (0 no effect, 100 complete control), visual, 12 to 14 days
[6] = 125 g ai/ha, scale 0 (no effect) to 100 (complete control), visual, 12 to 14 days
[7] = 62 g ai/ha, scale 0 to 100 (0 no effect, 100 complete control)

Structure (SMILES) | Sedge, Umbrella plant response rating ([1]; 62 g ai/ha, scale 0 to 100) | Sedge, Umbrella plant response rating [1, 2] | Sedge, Umbrella plant response rating [1, 3] | Plant response rating, Sedge, Umbrella [1, 4] | Rice plant response rating (rice; 62 g ai/ha, scale 0 to 100) | Rice plant response rating (rice; [2]) | Rice plant response rating (rice; [3]) | Plant response rating, Rice (rice; [4]) | Plant response rating, Soybean (soybean; 62 g ai/ha, scale 0 to 100) | Plant response rating, Soybean (soybean; 250 g ai/ha, scale 0-100) | Plant response rating, Soybean (soybean; [5]) | Plant response rating, Surinam Grass (Surinam grass; 62 g ai/ha, scale 0 to 100) | Plant response rating, Surinam Grass (Surinam grass; 250 g ai/ha, scale 0-100) | Plant response rating, Surinam Grass (Surinam grass; [5]) | Plant response rating, Ragweed (common ragweed; 62 g ai/ha, scale 0 to 100) | Plant response rating, Ragweed (common ragweed; 250 g ai/ha, scale 0-100) | Plant response rating, Ragweed (common ragweed; [5]) | Plant response rating, Foxtail, Giant (giant foxtail; 62 g ai/ha, scale 0 to 100) | Plant response rating, Foxtail, Giant (giant foxtail; [6]) | Plant response rating, Foxtail, Giant (giant foxtail; 250 g ai/ha, scale 0-100) | other results
CCn1nc(C2(C)CC2)cc1C(=O)Nc1cc(C(=O)N2CC=CC2)ccc1F [Compound 301] | 80 | 90 | 90 | 95 | 50 | 55 | 75 | 85 | 15 | 20 | 45 | 0 | 80 | 90 | 10 | 65 | 70 | 35 | 60 | 95 | Plant response rating, Foxtail, Giant (giant foxtail; [5]): 100; Plant response rating, Kochia (kochia; 62 g ai/ha, scale 0 to 100): 100; Plant response rating, Kochia (kochia; [6]): 100; Plant response rating, Kochia (kochia; 250 g ai/ha, scale 0-100): 100; Plant response rating, Kochia (kochia; [5]): 100; Plant response rating, Corn (corn; 62 g ai/ha, scale 0 to 100): 10; Plant response rating, Corn (corn; [6]): 10; Plant response rating, Corn (corn; 250 g ai/ha, scale 0-100): 40; Plant response rating, Corn (corn; [5]): 45; Barnyardgrass plant response rating (barnyardgrass; [7]): 50; Barnyardgrass plant response rating (barnyardgrass; [2]): 75; Barnyardgrass plant response rating (barnyardgrass; [3]): 90; Plant response rating, Barnyardgrass (barnyardgrass; [4]): 95; Plant response rating, Morningglory (morningglory; 62 g ai/ha, scale 0 to 100): 5; Plant response rating, Morningglory (morningglory; [6]): 5; Plant response rating, Morningglory (morningglory; 250 g ai/ha, scale 0-100): 10; Plant response rating, Morningglory (morningglory; [5]): 60
CCn1nc(C(C)(C)C)cc1C(=O)Nc1ccc(OC)c(OC)c1 [Compound 298] | 0 | 0 | 70 | 80 | 45 | 60 | 65 | 75 | 0 | 5 | 60 | 5 | 40 | 70 | 0 | 0 | 0 | 20 | 70 | 70 | Plant response rating, Foxtail, Giant (giant foxtail; [5]): 100; Plant response rating, Kochia (kochia; 62 g ai/ha, scale 0 to 100): 80; Plant response rating, Kochia (kochia; [6]): 95; Plant response rating, Kochia (kochia; 250 g ai/ha, scale 0-100): 100; Plant response rating, Kochia (kochia; [5]): 100; Plant response rating, Corn (corn; 62 g ai/ha, scale 0 to 100): 0; Plant response rating, Corn (corn; [6]): 10; Plant response rating, Corn (corn; 250 g ai/ha, scale 0-100): 15; Plant response rating, Corn (corn; [5]): 30; Barnyardgrass plant response rating (barnyardgrass; [7]): 15; Barnyardgrass plant response rating (barnyardgrass; [2]): 50; Barnyardgrass plant response rating (barnyardgrass; [3]): 65; Plant response rating, Barnyardgrass (barnyardgrass; [4]): 90; Plant response rating, Morningglory (morningglory; [6]): 5; Plant response rating, Morningglory (morningglory; 250 g ai/ha, scale 0-100): 20; Plant response rating, Morningglory (morningglory; [5]): 45

From US20060069132A1, “Azolecarboxamide herbicides” (priority 2004, published 2006)
